This passage reports Km results from PMC4493641, “Enhancement of E. coli acyl-CoA synthetase FadD activity on medium chain fatty acids” (PeerJ, 2015).

The target of one series is T1, FadD (Escherichia coli, UniProt P69451).
T1 construct: full-length, C-terminal His6 tag kept, pETDuet-1 (TJF032), expressed in E. coli BL21*(DE3) delta-fadD, partially purified by Ni-NTA
T1 sequence (P69451 1-561): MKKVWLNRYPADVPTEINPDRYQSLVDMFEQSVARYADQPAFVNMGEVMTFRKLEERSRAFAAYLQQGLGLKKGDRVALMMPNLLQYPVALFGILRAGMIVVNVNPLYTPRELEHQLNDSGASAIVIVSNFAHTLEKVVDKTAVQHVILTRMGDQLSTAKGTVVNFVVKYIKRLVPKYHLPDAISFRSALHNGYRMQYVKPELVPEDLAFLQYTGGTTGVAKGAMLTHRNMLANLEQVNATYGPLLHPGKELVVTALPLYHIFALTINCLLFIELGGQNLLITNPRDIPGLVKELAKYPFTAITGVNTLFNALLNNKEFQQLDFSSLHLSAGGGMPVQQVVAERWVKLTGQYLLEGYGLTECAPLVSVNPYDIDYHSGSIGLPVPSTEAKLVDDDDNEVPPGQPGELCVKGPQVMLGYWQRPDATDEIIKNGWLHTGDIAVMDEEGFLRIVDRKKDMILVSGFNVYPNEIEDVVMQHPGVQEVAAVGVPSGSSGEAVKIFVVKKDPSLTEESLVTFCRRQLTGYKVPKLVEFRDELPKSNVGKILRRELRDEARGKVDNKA
The experiment in a line: coupled AMP production assay (myokinase / pyruvate kinase / lactate dehydrogenase, NADH oxidation at […] nm). In kind it is biochemical. As to conditions: 2.5 mM ATP, 0.5 mM CoA, 8 mM MgCl2, 0.1% Triton X-100, pH 7.5, 30 °C; partially purified.

Substrate in the series “purified protein”: CCCCCCCC(=O)O
As to the kind of experiment: purified protein. As to conditions: 2.5 mM ATP, 0.5 mM CoA, 8 mM MgCl2, 0.1% Triton X-100, pH 7.5, 30 °C, partially purified.

Turning to `CCCCCCCC/C=C\CCCCCCCC(=O)O` [oleate], the Michaelis constant (Km) – broadly, the substrate concentration at which the rate is half of its maximum – at FadD was “Vmax (A) and Km (B) values for the indicated substrates”.

B1: FadD (Escherichia coli K-12) (protein)
chain: T1 sequence (P69451 1-561)
As to B1, in the series “purified protein”, the Km is listed as 422 µM.
